Converted amounts (≈) assume the structure as drawn.

Results on 34 compounds are retold here after ChEMBL document CHEMBL1944624, “Synthesis and antimalarial and antituberculosis activities of a series of natural and unnatural 4-methoxy-6-styryl-pyran-2-ones, dihydro analogues and photo-dimers” (Bioorg Med Chem, 2012).

The subject of assay [1] is Trypanosoma brucei rhodesiense. Briefly: Antiprotozoal activity against Trypanosoma brucei rhodesiense STIB900 trypomastigotes after 72 hrs by alamar blue assay. In kind it is functional, organism-based. To be noted: STIB900, 72 h.
Assay [2] concerns Trypanosoma cruzi. Briefly: Antiprotozoal activity against Trypanosoma cruzi Tulahuen C2C4 amastigotes infected in rat L6 myoblasts after 96 hrs by CPRG/Nonidet-based spectrophotometry. The class given is functional, organism-based. Conditions: Tulahuen C2C4, L6, 96 h.
The subject of assay [3] is Leishmania donovani. Briefly: Antiprotozoal activity against Leishmania donovani MHOM/ET/67/L82 axenic amastigotes after 72 hrs by alamar blue assay. The class given is functional, organism-based. To be noted: MHOM/ET/67/L82, 72 h.
For assay [4], the system named is Plasmodium falciparum. The assay is described as follows: microbe, parasite or virus in culture. In kind it is functional, organism-based. Conditions: K1.
Description: Antiprotozoal activity against erythrocytic stages chloroquine- and pyrimethamine-resistant Plasmodium falciparum K1 assessed as inhibition of [3H]hypoxanthine incorporation pre-incubated for 48 hrs prior [3H]hypoxanthine addition measured after 24 hrs by liquid scintillation counting
Assay [5] deals with L6. Briefly: Cytotoxicity against rat L6 myoblasts after 72 hrs by alamar blue assay. To be noted: L6, 72 h. The class given is cell-based.
The nature of assay [6]: Selectivity index, ratio of IC50 for erythrocytic stages chloroquine and pyrimethamine-resistant Plasmodium falciparum K1 to IC50 for rat L6 myoblasts. The arrangement: reference not given here.
The subject of assay [7] is Mycobacterium tuberculosis. Briefly: Antituberculosis activity against Mycobacterium tuberculosis. In kind it is functional.
Assay [8] deals with Trypanosoma brucei rhodesiense. The assay is described as follows: Antiprotozoal activity against Trypanosoma brucei rhodesiense. The class given is functional, organism-based.
The subject of assay [9] is Leishmania donovani. The assay is described as follows: Antiprotozoal activity against Leishmania donovani. The class given is functional, organism-based.
The test system of assay [10] is Plasmodium falciparum. Briefly: Antiprotozoal activity against chloroquine resistant Plasmodium falciparum K1. In kind it is functional, organism-based.
Assay [11] deals with Plasmodium falciparum. The assay is described as follows: Antiprotozoal activity against Plasmodium falciparum. In kind it is functional, organism-based.

Regarding `COc1cc(/C=C/c2ccc3c(c2)OCO3)oc(=O)c1`, the half-inhibitory concentration (IC50) in assay [1] came to 47 µM; in [2], 180 µM; in assay [3] it was 230 µM; in assay [4], 5.6 µM; in assay [5], 16 µM. Further, in [6], the “Ratio IC50” value is 3.
Consider `COc1cc(CCc2cccc(Oc3ccc(C(C)(C)C)cc3)c2)oc(=O)c1`, for which the IC50 came to 65 µM in [1]; 36 µM in assay [2]; 15 µM in assay [3]; 7.2 µM in [4]; 50 µM in assay [5]. The “Ratio IC50” value in assay [6] was determined as 7.
Turning to `O=C(Cn1ccnc1[N+](=O)[O-])NCc1ccccc1` [BENZNIDAZOLE], half-maximal inhibition in assay [2] (IC50) required 1.4 µM.
Consider `COc1cc(=O)oc([C@H]2[C@H](c3ccc(OC)c(OC)c3)[C@H](c3cc(OC)cc(=O)o3)[C@H]2c2ccc(OC)c(OC)c2)c1`, for which the IC50 stood at 6.2 µM in [1]; 38 µM in assay [2]; 75 µM in assay [3]; 3.1 µM in assay [4]; 22 µM in [5]. In addition, the “Ratio IC50” value in assay [6] is given as 7.
For `COc1cc(/C=C/c2ccc3ccccc3c2)oc(=O)c1`, the IC50 in [1] was 2.7 µM; in assay [2], greater than 320 µM; in assay [3] it was greater than 320 µM; in [4], 1.3 µM; in assay [5], 28 µM. Further, in [6], the “Ratio IC50” value is on record as 22.
Consider `COc1cc(/C=C/c2cccc(Oc3ccccc3)c2)oc(=O)c1`, for which the IC50 is 8.8 µM in assay [1]; 43 µM in assay [2]; 30 µM in assay [3]; 4.9 µM in [4]; 13 µM in assay [5]. Moreover, in [6], the “Ratio IC50” value was 3.
With `COc1cc([C@@H]2[C@@H](c3ccccc3)[C@@H](c3ccccc3)[C@@H]2c2cc(OC)cc(=O)o2)oc(=O)c1`, the IC50 in [1] was determined as 15 µM; in assay [2], 32 µM; in assay [3] it was 17 µM; in assay [4] it was 3.8 µM; in [5], 51 µM. The “Ratio IC50” value in assay [6] is on record as 13.
On to `COc1cc(CCc2cccc3ccccc23)oc(=O)c1`, for which the IC50 was 85 µM in [1]; 76 µM in assay [2]; 55 µM in [3]; greater than 18 µM in assay [4]; 110 µM in assay [5].
For the compound `COC1=CC(=O)O[C@]2(/C=C/c3ccc(C(C)(C)C)cc3)[C@H]1[C@H](c1ccc(C(C)(C)C)cc1)[C@H]2c1cc(OC)cc(=O)o1` (racemic), the half-inhibitory concentration (IC50) in assay [1] worked out at 21 µM; in [2], 71 µM; in [3], 4.5 µM; in assay [4], 1.7 µM; in assay [5] it was 130 µM. The “Ratio IC50” value in assay [6] stood at 76.
With `COC1=CC(=O)O[C@]2(/C=C/c3cccc(Oc4ccc(C(C)(C)C)cc4)c3)[C@H]1[C@H](c1cccc(Oc3ccc(C(C)(C)C)cc3)c1)[C@H]2c1cc(OC)cc(=O)o1` (racemic), the IC50 was greater than 120 µM in [1]; greater than 120 µM in assay [2]; 66 µM in assay [3]; 4.4 µM in [4]; greater than 120 µM in [5]. Further, the “Ratio IC50” value in [6] is greater than 27.
`COc1cc(=O)oc([C@H]2[C@H](c3ccc4ccccc4c3)[C@H](c3cc(OC)cc(=O)o3)[C@H]2c2ccc3ccccc3c2)c1`: the IC50 in assay [1] came out at 4.9 µM; in [2] it was 90 µM; in assay [3], 10 µM; in assay [4] it was 2.3 µM; in assay [5], 95 µM. The “Ratio IC50” value in assay [6] is listed as 42.
For the compound `COC1=CC(=O)O[C@]2(/C=C/c3ccc(OC)c(OC)c3)[C@H]1[C@H](c1ccc(OC)c(OC)c1)[C@H]2c1cc(OC)cc(=O)o1` (relative stereo), the IC50 in assay [1] was found to be 61 µM; in assay [2], 130 µM; in assay [3], 79 µM; in assay [4] it was 1.5 µM; in [5], 120 µM. Also, in assay [6], the “Ratio IC50” value was found to be 80.
In the case of `COC1=CC(=O)O[C@]2(/C=C/c3ccccc3)[C@H]1[C@H](c1ccccc1)[C@H]2c1cc(OC)cc(=O)o1` (relative stereo), the half-maximal inhibitory concentration (IC50) in assay [1] was 13 µM; in assay [2], 28 µM; in assay [3] it was 27 µM; in [4], 7.1 µM; in assay [5], greater than 200 µM. Further, the “Ratio IC50” value in [6] is recorded as greater than 28.
Take `COc1cc(/C=C/c2cccc(Oc3ccc(C(C)(C)C)cc3)c2)oc(=O)c1`: the IC50 came to 34 µM in assay [1]; 40 µM in assay [2]; 25 µM in [3]; 6.3 µM in [4]; 64 µM in assay [5]. Moreover, the “Ratio IC50” value in assay [6] is 10.
On to `COc1cc(/C=C/c2ccc(/C=C/c3cc(OC)cc(=O)o3)cc2)oc(=O)c1`, for which the IC50 is 119 µM in assay [1]; greater than 240 µM in [2]; greater than 240 µM in assay [3]; 8.6 µM in assay [4]; greater than 240 µM in assay [5]. Moreover, the “Ratio IC50” value in assay [6] was greater than 28.
As for `COc1cc(/C=C/c2cccc3ccccc23)oc(=O)c1`, the 50% inhibitory concentration (IC50) was 18 µM in [1]; 34 µM in [2]; 47 µM in [3]; 4.6 µM in assay [4]; 110 µM in [5]. Also, in assay [6], the “Ratio IC50” value amounted to 24.
Regarding `COc1cc(/C=C/c2ccccc2)oc(=O)c1` [DESMETHOXYYANGONIN], the half-inhibitory concentration (IC50) in assay [1] amounted to 120 µM; in assay [2] it was 64 µM; in [3], 190 µM; in assay [4], 13 µM; in assay [5] it was 160 µM. Further, in assay [6], the “Ratio IC50” value is 12.
As to `COc1cc(/C=C/c2cccc([N+](=O)[O-])c2)oc(=O)c1`, the IC50 in [1] is 290 µM; in [2], greater than 330 µM; in assay [3] it was 270 µM; in assay [4] it was 12 µM; in assay [5] it was 180 µM. Also, the “Ratio IC50” value in [6] was found to be 15.
Turning to `COc1cc(/C=C/c2ccco2)oc(=O)c1`, the IC50 was 76 µM in assay [1]; greater than 410 µM in assay [2]; 240 µM in assay [3]; 17 µM in assay [4]; 140 µM in assay [5]. In addition, the “Ratio IC50” value in assay [6] was 8.
`CCCCCCCC1CC(O)=C(CCCCCC)C(=O)O1` (centres undefined) [PSEUDOPYRONINE B] displayed an MIC in assay [7] of 2.7 µM (≈ 0.8 µg/mL). Moreover, the values for the IC50 in [8], in assay [9] and in [10] were 42 µM, 4.8 µM and 48 µM, respectively.
`COc1cc(CCc2ccc3ccccc3c2)oc(=O)c1`: the IC50 was determined as 72 µM in assay [1]; 65 µM in assay [2]; 42 µM in assay [3]; 16 µM in [4]; 91 µM in assay [5]. Besides, the “Ratio IC50” value in assay [6] was found to be 6.
As to `COc1cc(CCc2ccc3c(c2)OCO3)oc(=O)c1`, the concentration for half-maximal inhibition (IC50) in [1] was greater than 330 µM; in assay [2], greater than 330 µM; in assay [3], greater than 330 µM; in assay [4], greater than 18 µM; in assay [5], 150 µM.
For the compound `COc1cc(CCc2ccc(C(C)(C)C)cc2)oc(=O)c1`, the IC50 in [1] is 78 µM; in assay [2], 55 µM; in assay [3], 24 µM; in assay [4] it was 11 µM; in [5], 95 µM. Further, the “Ratio IC50” value in assay [6] was found to be 9.
Consider `COc1cc(/C=C/c2ccc(C(C)(C)C)cc2)oc(=O)c1`, for which the IC50 in [1] was found to be 44 µM; in assay [2], 26 µM; in assay [3], 20 µM; in assay [4] it was 5.3 µM; in [5], 24 µM. Also, the “Ratio IC50” value in assay [6] was found to be 4.
On to `CCCCCCCCCCCCCCCCOP(=O)([O-])OCC[N+](C)(C)C` [MILTEFOSINE], for which half-maximal inhibition in [3] (IC50) required 0.5 µM.
In assay [5], `COc1cc([C@@H]2c3cc4c(cc3[C@H](O)[C@H]3COC(=O)[C@H]23)OCO4)cc(OC)c1OC` [PODOFILOX] had an IC50 of 0.01 µM.
For the compound `COc1cc(/C=C/C=C/c2ccc(N(C)C)cc2)oc(=O)c1`, the IC50 in assay [1] is 290 µM; in assay [2], greater than 300 µM; in [3], greater than 300 µM; in assay [4] it was 7.2 µM; in [5], 26 µM. Besides, the “Ratio IC50” value in assay [6] worked out at 4.
For the compound `COc1cc(CCc2ccc(CCc3cc(OC)cc(=O)o3)cc2)oc(=O)c1`, the IC50 in [1] is 200 µM; in assay [2], greater than 240 µM; in assay [3] it was greater than 240 µM; in assay [4] it was 3.6 µM; in assay [5], 50 µM. Further, the “Ratio IC50” value in [6] was determined as 14.
For the compound `COc1cc(/C=C/C=C/c2ccccc2)oc(=O)c1`, the IC50 in assay [1] was 150 µM; in [2] it was greater than 350 µM; in assay [3], 220 µM; in assay [4], 6.7 µM; in assay [5], 190 µM. Moreover, in [6], the “Ratio IC50” value turned out to be 29.
As for `COc1cc(/C=C/c2ccc([N+](=O)[O-])cc2)oc(=O)c1`, the IC50 in [1] came to 38 µM; in [2] it was 240 µM; in assay [3], 49 µM; in assay [4] it was 6 µM; in assay [5] it was 190 µM. The “Ratio IC50” value in assay [6] came out at 32.
Regarding `COc1cc(CCc2ccc(OC)c(OC)c2)oc(=O)c1`, the IC50 in assay [1] was 200 µM; in assay [2] it was greater than 310 µM; in assay [3], 270 µM; in assay [4] it was greater than 17 µM; in assay [5], greater than 310 µM.
For `COc1cc(/C=C/c2ccc(OC)c(OC)c2)oc(=O)c1`, the half-maximal inhibitory concentration (IC50) in [1] was 31 µM; in [2] it was 170 µM; in [3], 270 µM; in assay [4], 3 µM; in assay [5] it was 160 µM. Besides, in assay [6], the “Ratio IC50” value stood at 54.
Regarding `CCCCCCc1c(OC)cc(CCCCC)oc1=O`, the MIC in [7] amounted to 45 µM (≈ 12.6 µg/mL). Also, the IC50 was found to be 14 µM in [8] and 11 µM in [11].
As for `COc1cc(CCc2ccccc2)oc(=O)c1` [DIHYDRO-5,6-DEHYDROKAWAIN], the IC50 in assay [2] was 240 µM; in [3], 190 µM; in assay [4] it was greater than 22 µM; in assay [5] it was 290 µM.
